# Laboratory results from PubChem BioAssay (NCI).
#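 Results reflect a 48-hour exposure of cells in 96-well plates to compound at five concentrations. Here, GI50 denotes the concentration required for 50% inhibition of growth. TGI denotes the concentration required for complete inhibition of growth.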
# Key:
# Test in all cases: growth of human tumour cells (NCI), 48 h
# SK-MEL-28 melanoma = tested on: SK-MEL-28 melanoma
# SNB-19 CNS = tested on: SNB-19 CNS
# MALME-3M melanoma = tested on: MALME-3M melanoma
# A498 renal = tested on: A498 renal
# HCT-116 colon = tested on: HCT-116 colon
# RXF 393 renal = tested on: RXF 393 renal
# KM12 colon = tested on: KM12 colon
# NCI-H23 lung = tested on: NCI-H23 lung
# NCI-H460 lung = tested on: NCI-H460 lung
# SK-MEL-2 melanoma = tested on: SK-MEL-2 melanoma
Compound,GI50 (SK-MEL-28 melanoma),TGI (SK-MEL-28 melanoma),GI50 (SNB-19 CNS),TGI (SNB-19 CNS),GI50 (MALME-3M melanoma),TGI (MALME-3M melanoma),GI50 (A498 renal),TGI (A498 renal),GI50 (HCT-116 colon),TGI (HCT-116 colon),GI50 (RXF 393 renal),TGI (RXF 393 renal),GI50 (KM12 colon),TGI (KM12 colon),GI50 (NCI-H23 lung),TGI (NCI-H23 lung),GI50 (NCI-H460 lung),TGI (NCI-H460 lung),GI50 (SK-MEL-2 melanoma),TGI (SK-MEL-2 melanoma)
CC1(C)CC[C@H](Nc2ncc(C(F)(F)F)c(-c3c[nH]c4c(P(C)(C)=O)c(C#N)ccc34)n2)CN1,< 0.01 µM,9.2 µM,0.0439 µM,> 54.3 µM,< 0.0128 µM,13 µM,1.76 µM,8.85 µM,< 0.01 µM,12.1 µM,0.777 µM,4 µM,0.19 µM,13.2 µM,< 0.01 µM,3.44 µM,< 0.01 µM,11.5 µM,0.283 µM,6.9 µM
COc1ccc(Nc2ncc(Br)c(NCCCNC(=O)C3CCC3)n2)cc1,33.4 µM,> 100 µM,8.95 µM,> 100 µM,24.6 µM,> 100 µM,12.3 µM,27.2 µM,8.31 µM,82.3 µM,2.3 µM,8.56 µM,8.06 µM,> 100 µM,16.6 µM,62.2 µM,8.34 µM,31.5 µM,22.9 µM,55.7 µM
COc1ccc2c(c1)/C(=C\c1cccnc1)C(=O)N2,23.4 µM,64.7 µM,16.2 µM,51.6 µM,21 µM,47.9 µM,23.4 µM,49.8 µM,9.72 µM,> 100 µM,13.4 µM,37 µM,19.7 µM,57.8 µM,16.6 µM,35 µM,19.2 µM,62.4 µM,42.3 µM,> 100 µM
COc1ccc(-c2cc(=O)c3c(C)cc(C)nc3[nH]2)cc1,,> 100 µM,,> 100 µM,,88 µM,,> 100 µM,36.5 µM,> 100 µM,,> 100 µM,,> 100 µM,,> 100 µM,40.9 µM,> 100 µM,,> 100 µM
CCc1n(Cc2ccc3ccccc3n2)cc[n+]1Cc1ccc2ccccc2n1,0.196 µM,14.7 µM,0.0687 µM,10.7 µM,0.128 µM,0.973 µM,0.303 µM,9.38 µM,1.35 µM,29.7 µM,0.982 µM,13 µM,0.185 µM,11.3 µM,0.257 µM,8.66 µM,0.511 µM,11.9 µM,0.217 µM,2.11 µM
Cc1c(S(C)(=O)=O)c(-c2cc(F)cc(N3CCN(c4ccc(NS(=O)(=O)c5ccc(N[C@H](CCN6CCC(C(=O)OCCCP(=O)(O)O)CC6)CSc6ccccc6)c(S(=O)(=O)C(F)(F)F)c5)cc4)CC3)c2)c(-c2ccc(Cl)cc2)n1C(C)C,> 100 µM,> 100 µM,68.1 µM,> 100 µM,> 100 µM,> 100 µM,> 100 µM,> 100 µM,> 100 µM,> 100 µM,> 100 µM,> 100 µM,> 100 µM,> 100 µM,> 100 µM,> 100 µM,> 100 µM,> 100 µM,> 100 µM,> 100 µM
O=C1C(c2c[nH]c3ccccc23)=C(c2c[nH]c3ccccc23)C(=O)N1O,> 25 µM,> 25 µM,> 25 µM,> 25 µM,> 25 µM,> 25 µM,8.1 µM,> 25 µM,> 25 µM,> 25 µM,> 22.7 µM,> 25 µM,> 25 µM,> 25 µM,> 25 µM,> 25 µM,> 25 µM,> 25 µM,> 25 µM,> 25 µM
COc1ccc2c(c1)C(=O)c1c-2n(CCCN=[N+]=[N-])c(=O)c2cc(N(C)C)ccc12,> 100 µM,> 100 µM,> 100 µM,> 100 µM,> 100 µM,> 100 µM,> 100 µM,> 100 µM,77.3 µM,> 100 µM,5.16 µM,80.8 µM,3.66 µM,> 100 µM,> 100 µM,> 100 µM,> 100 µM,> 100 µM,> 100 µM,> 100 µM
COc1cc(/C=C\c2ccccc2)cc(OC)c1OC,,> 100 µM,,> 77.5 µM,,19.7 µM,,> 41.1 µM,,> 100 µM,,5.25 µM,,> 73.1 µM,,19.5 µM,,27.3 µM,,26.2 µM
O=C(/C=C/c1ccccc1)CC1OC(=O)c2ccccc21 (configuration not stated),,> 100 µM,,> 100 µM,,> 100 µM,,> 100 µM,,> 100 µM,,> 100 µM,,> 100 µM,,> 100 µM,,> 100 µM,,> 100 µM
COc1ccc(N2Cc3cnc(Nc4ccccc4)nc3N([C@@H]3CC[C@@H](O)C3)C2=O)cc1,8.19 µM,> 25 µM,11.9 µM,> 25 µM,6.89 µM,> 25 µM,0.128 µM,1.2 µM,2.84 µM,> 25 µM,0.399 µM,3.18 µM,3.54 µM,> 25 µM,8.17 µM,> 25 µM,3.41 µM,> 25 µM,5.21 µM,17.5 µM
